Source: PMC9496042 (2022)

Assays:
[1] = test system: Apt-20 (DNA, aptamer) GCTGTGTGACTCCTGCAAGCGCAATGATGTGTTGTGGGTGGGCGGGTGGCTCATTGCGTGGGCAGCTGTATCTTGTCTCC; test: graphene oxide fluorescence recovery (FAM); details: 100 mM NaCl, 5 mM KCl, 2 mM MgCl2, 1 mM CaCl2; 20 mM Tris-HCl pH 7.6 (binding buffer); aptamer titrated at fixed FF (1 M [sic])
[2] = test system: Apt-14 (DNA, aptamer) GCTGTGTGACTCCTGCAAACGGCCAGTGGGTGGGGCGGGTGGCGGCCGGTTGTTTCTATGCGCAGCTGTATCTTGTCTCC; test: graphene oxide fluorescence recovery (FAM); details: 100 mM NaCl, 5 mM KCl, 2 mM MgCl2, 1 mM CaCl2; 20 mM Tris-HCl pH 7.6 (binding buffer); aptamer titrated at fixed FF (1 M [sic]); GO:ssDNA 20:1
[3] = test system: Apt-1 (DNA, aptamer) GCTGTGTGACTCCTGCAAGGTCCTCGGGTGGTGGGTGGGCTCGGGTTTTTGTTCACTCTCCGCAGCTGTATCTTGTCTCC; test: graphene oxide fluorescence recovery (FAM); details: 100 mM NaCl, 5 mM KCl, 2 mM MgCl2, 1 mM CaCl2; 20 mM Tris-HCl pH 7.6 (binding buffer); aptamer titrated at fixed FF (1 M [sic])
[4] = test system: Apt-14t (DNA, aptamer) ACGGCCAGTGGGTGGGGCGGGTGGCGGCCGGTTGTTTCTATGC; test: graphene oxide fluorescence recovery (FAM); details: 100 mM NaCl, 5 mM KCl, 2 mM MgCl2, 1 mM CaCl2; for binding: binding buffer pH 7.6, 100 nM aptamer, 1 µM compound
[5] = test system: Apt-15 (DNA, aptamer) GCTGTGTGACTCCTGCAACACGAACGTTTCCGTGGGTGGGTGGGTGGCCAAATGTCGCGTGGCAGCTGTATCTTGTCTCC; test: graphene oxide fluorescence recovery (FAM); details: 100 mM NaCl, 5 mM KCl, 2 mM MgCl2, 1 mM CaCl2; 20 mM Tris-HCl pH 7.6 (binding buffer); aptamer titrated at fixed FF (1 M [sic])
[6] = test system: Apt-14t (AuNP assay) (DNA, aptamer) ACGGCCAGTGGGTGGGGCGGGTGGCGGCCGGTTGTTTCTATGC; test: AuNP colorimetry (A650/A520); details: 100 mM NaCl, 5 mM KCl, 2 mM MgCl2, 1 mM CaCl2; binding buffer pH 7.6, 37 °C; 200 nM aptamer; NaCl added after binding to aggregate AuNPs

Row | Kd [1] [µM] | Kd [2] [µM] | Kd [3] [µM] | Kd ([4]; 20 mM Tris-HCl pH 7.6 (binding buffer), aptamer titrated 0-200 nM at fixed FF (1 M [sic])) [µM] | Kd [5] [µM] | binding [6] | binding [4] | Compound
1 | 0.05944 ± 0.0169 | 0.03465 ± 0.0057 | 0.0709 ± 0.02236 | 0.00466 ± 0.00075 | 0.05741 ± 0.018 | yes | – | CS(=O)(=O)c1ccc([C@@H](O)[C@@H](CF)NC(=O)C(Cl)Cl)cc1
2 | – | – | – | – | – | – | weak | CS(=O)(=O)c1ccc([C@@H](O)[C@@H](CO)NC(=O)C(Cl)Cl)cc1
3 | – | – | – | – | – | yes | yes | CS(=O)(=O)c1ccc([C@@H](O)[C@H](N)CF)cc1
4 | – | – | – | – | – | – | weak | O=C(N[C@H](CO)[C@H](O)c1ccc([N+](=O)[O-])cc1)C(Cl)Cl
